Columns and labels:
[1] = tested on: mold; assay: Shelf-life study using pup loaves (Example 6), day of visible mold; conditions: ambient temperature
Procedure: Example 6. In another example, a comparative shelf-life and sensory study using pup loaves was performed by an ISO/IEC 17025:2017 certified laboratory, Great Plains Analytical Laboratory, Kansas City, MO. A total of seven test groups of white bread in a pup loaf formulation were prepared. […] Test groups were stored at ambient temperature for between 7 and 15 days to determine the overall efficacy of the inhibitors and compare the performance of the inhibitors in the bread formulation. Sensory analysis was performed examining the flavor and crumb texture for all samples. The studies were conducted concurrently.
A standard white bread dough formulation was prepared for each test group. Three pup loaves were prepared for each test group for the visual examination portion of the study. […] The bread was baked for 15 minutes at 425±1° F. Internal temperatures were recorded upon exiting the oven and prior to packaging. […]
Chemical testing included the evaluation of pH on the dough out of the mixer (Table 15). […] A bake score, height, and volume were recorded for each test group. […] The pup loaves were evaluated for visible mold every day for the shelf-life portion of the study. A photograph of the visible mold was taken the day it was detected. The sensory analysis consisted of a quantitative descriptive analysis and a ranking performed by a trained panel. […]

[2] = tested on: mold; assay: Comparative shelf-life study using pup loaves (white bread), days until visible mold
Procedure: Example 2. A comparative shelf-life study was performed using pup loaves by an ISO/IEC 17025:2017 certified laboratory, Great Plains Analytical Laboratory, Kansas City, MO, USA. A standard white bread dough formulation was prepared (pup loaves) for each test group. Approximately 500 grams of dry material was used to prepare 3 pup loaves per test group. Various preservatives, which were to act as mold inhibitors, were added to the doughs. The amount of preservatives added to each dough is reported as a weight percentage based on the mass of flour in the dough (“on flour”). Each mold inhibitor was thoroughly mixed into the formulation for each dough. The percentage inclusion and type of mold inhibitor on flour is outlined in Table 2. Three of the mold inhibitors were made with acetic and propionic acid produced from fermentation using a mixed consortium of naturally occurring microorganisms or microbiome using the methods previously described herein. […] The second and third comparative mold inhibitors were high-efficacy clean-label acetate/propionate mold inhibitors, with one having an acetate/propionate weight ratio of 1:1 (50 wt. % acetate/50 wt. % propionate) (BV1) and the other one having an acetate/propionate weight ratio of 1:6 (14 wt. % acetate/86 wt. % propionate) (BV2). […] The internal temperature of each loaf was recorded upon exiting the oven and prior to packaging (Table 3). In addition, water activity and pH were measured in one of the replicates for each group prior to baking using a water activity meter and a pH meter (Table 4). The product odor (similar to baseline or off odor development), color, and general appearance were evaluated daily. […]
Three sample loaves were produced using each of the inhibitor treatments, and the number of days until mold was observed was recorded for each loaf. […] No off-odors were detected over time in any of the treatments.

[3] = Dough pH out of the mixer (Example 6); format: physicochemical
Procedure: Chemical testing included the evaluation of pH on the dough out of the mixer (Table 15). Measurement for pH was made using a pH meter. A bake score, height, and volume were recorded for each test group. The bake score examined the crust color, loaf symmetry, uniformity of the break and shred, crumb texture, crumb grain, crumb color, taste, and aroma. The pup loaves were evaluated for visible mold every day for the shelf-life portion of the study. A photograph of the visible mold was taken the day it was detected. The sensory analysis consisted of a quantitative descriptive analysis and a ranking performed by a trained panel. […] The descriptive analysis covered the crumb texture and flavor of the test groups. The sensory analysis was performed on Days 3, 6, 9, 12, and 15. No sensory analysis was performed on bread that had visible mold.
The temperature of the loaves out of the oven and prior to packaging were recorded in Table 14. Dough was removed from the mixing bowl and then analyzed for pH.

[4] = Water activity and pH of tortilla dough prior to baking; format: physicochemical
Procedure: After mixing the tortilla formulation ingredients with the corresponding mold inhibitor, samples of rounded dough were placed onto parchment paper and allowed to ferment for 20 minutes at 82±2° F. and 85% relative humidity. The dough was then pressed into a tortilla form, cooked, cooled, and packaged. This procedure was repeated for each test group. One replicate of dough for each group was tested prior to baking. Water activity was measured using a water activity meter. Measurements for pH were made using a pH meter. The product odor (similar to baseline or off odor development), color, and general appearance were evaluated daily. Each sample was opened and closed daily, until visible mold appeared.

[5] = Water activity and pH of bread dough prior to baking; format: physicochemical
Procedure: Example 2. A comparative shelf-life study was performed using pup loaves by an ISO/IEC 17025:2017 certified laboratory, Great Plains Analytical Laboratory, Kansas City, MO, USA. A standard white bread dough formulation was prepared (pup loaves) for each test group. Approximately 500 grams of dry material was used to prepare 3 pup loaves per test group. Various preservatives, which were to act as mold inhibitors, were added to the doughs. The amount of preservatives added to each dough is reported as a weight percentage based on the mass of flour in the dough (“on flour”). Each mold inhibitor was thoroughly mixed into the formulation for each dough. The percentage inclusion and type of mold inhibitor on flour is outlined in Table 2. Three of the mold inhibitors were made with acetic and propionic acid produced from fermentation using a mixed consortium of naturally occurring microorganisms or microbiome using the methods previously described herein. […] The second and third comparative mold inhibitors were high-efficacy clean-label acetate/propionate mold inhibitors, with one having an acetate/propionate weight ratio of 1:1 (50 wt. % acetate/50 wt. % propionate) (BV1) and the other one having an acetate/propionate weight ratio of 1:6 (14 wt. % acetate/86 wt. % propionate) (BV2). […] After mixing, the dough was divided into disposable bread pans and allowed to ferment for 3 hours at 86±1° F. and 60% relative humidity, proofed for 55 minutes at 109±1° F. and 90% humidity, and baked for 15 minutes at 425±1° F. This procedure was repeated for each test group for a total of 30 loaves of bread. The internal temperature of each loaf was recorded upon exiting the oven and prior to packaging (Table 3). In addition, water activity and pH were measured in one of the replicates for each group prior to baking using a water activity meter and a pH meter (Table 4). The product odor (similar to baseline or off odor development), color, and general appearance were evaluated daily. Each sample was opened and closed daily until visible mold appeared.

[6] = tested on: mold; assay: Comparative shelf-life study using flour tortillas, days until visible mold
Procedure: Example 3. A comparative shelf-life study using flour tortillas was performed by an ISO/IEC 17025:2017 certified laboratory, Great Plains Analytical Laboratory, Kansas City, MO. The purpose of this study was to compare the efficacy of preservatives, which were to act as mold inhibitors, in a tortilla formulation. A total of 10 test groups of tortillas were prepared: 9 test groups contained various mold inhibitors and one test group served as control, without a mold inhibitor (no additive). Test groups were stored at ambient temperature for 30 days to determine the overall efficacy of the inhibitors and compare the performance of the inhibitors in the tortilla formulation. […]
After mixing the tortilla formulation ingredients with the corresponding mold inhibitor, samples of rounded dough were placed onto parchment paper and allowed to ferment for 20 minutes at 82±2° F. and 85% relative humidity. […] Water activity was measured using a water activity meter. […] The product odor (similar to baseline or off odor development), color, and general appearance were evaluated daily. […]
The results for the tortilla shelf-life study comparing the preservative/mold inhibitors treatments are graphically shown in FIG. 2. Three tortilla samples were produced using each of the inhibitor treatments, and the number of days until mold was observed was recorded for each sample. […]

[7] = 0.3 wt. % on flour (order of Table 2)
[8] = 1 wt. % on flour (order of Table 2)

| Compound | Day of Visible Mold ([1]; 0.5 wt. %) | Day of Visible Mold ([1]; 0.8 wt. %) | mold inhibitor performance ([2]; 0.3 wt. % on flour) | Dough pH ([3]; 0.5 wt. % mold inhibitor) | Dough pH ([3]; 0.8 wt. % mold inhibitor) | Water Activity [4, 7] | pH [4, 7] | Water Activity [5, 7] | pH [5, 7] | mold after day 30 up to day 45 ([2]; 1 wt. % on flour, bags no longer opened each day) | day visible mold developed (replicate loaves) ([2]; 1 wt. % on flour, stored 70-73 F, opened daily, 30-day study) | Water Activity [4, 8] | pH [4, 8] | days on which visible mold developed (replicates) ([6]; 1 wt. % on flour, 68-73 F, opened daily) | mold after day 30 up to day 45 ([6]; 1 wt. %, remaining replicate, bags no longer opened) | Water Activity [5, 8] | pH [5, 8] |
| --- | --- | --- | --- | --- | --- | --- | --- | --- | --- | --- | --- | --- | --- | --- | --- | --- | --- |
| CCC(=O)[O-].CCC(=O)[O-].[Ca+2] [CCP, calcium propionate, reference compound] | 7 days | 9 days | performed similar to the natural calcium propionate (BV CP) | 5.34 | 5.53 | 0.9502 | 6.7 | 0.9564 | 5.40 |  |  |  |  |  |  |  |  |
| CCC(=O)[O-].CCC(=O)[O-].[Ca+2] [BV CP, calcium propionate] |  |  |  |  |  | 0.9548 | 6.98 | 0.9535 | 5.65 | no signs of mold growth or off odor at day 45 | > 30 days | 0.9612 | 6.87 | 30 days | > 45 days | 0.9448 | 5.73 |

Source: patent US20240334941A1, “HIGH-EFFICACY NATURAL PRESERVATIVES” (BioVeritas, LLC, priority 2023, published 2024)
